Source: ChEMBL document CHEMBL1201862, “PubChem BioAssay data set” (2004)
Where “and” joins values, the source holds several entries; their conditions need not be identical. Equal values may be shown once.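 A five-concentration, 48-hour dose response in 96-well plates underlies each endpoint, interpolated linearly between surrounding concentrations. GI50: concentration for 50% inhibition of growth.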 Calls of active or inactive are those of the source. Cut-off read from the data, not from the text of the source: active = GI50 up to about 1.1 µM and inactive = higher.

Tests used:
Test in all cases: NCI tumour cell line growth inhibition, 48 h
786-0 = system: 786-0
OVCAR-5 = system: OVCAR-5
A498 = system: A498
SNB-75 = system: SNB-75
Hs-578T = system: Hs-578T
DU-145 = system: DU-145
HL-60 = system: HL-60
HCC 2998 = system: HCC 2998
CAKI-1 = system: CAKI-1
MDA-MB-435 = system: MDA-MB-435
EKVX = system: EKVX
SK-OV-3 = system: SK-OV-3
SK-MEL-2 = system: SK-MEL-2
U-251 = system: U-251
M14 = system: M14
A549 = system: A549
OVCAR-4 = system: OVCAR-4
UACC-257 = system: UACC-257
HCT-15 = system: HCT-15
PC-3 = system: PC-3

Structure (SMILES)	GI50 (786-0)	GI50 (OVCAR-5)	GI50 (A498)	GI50 (SNB-75)	GI50 (Hs-578T)	GI50 (DU-145)	GI50 (HL-60)	GI50 (HCC 2998)	GI50 (CAKI-1)	GI50 (MDA-MB-435)	GI50 (EKVX)	GI50 (SK-OV-3)	GI50 (SK-MEL-2)	GI50 (U-251)	GI50 (M14)	GI50 (A549)	GI50 (OVCAR-4)	GI50 (UACC-257)	GI50 (HCT-15) [µM]	GI50 (PC-3)
Cc1cc(-c2cc(C)c(O)c(C(C)(C)C)c2)cc(C(C)(C)C)c1O	10.7 µM (inactive) and 13.1 µM (inactive)	14.5 µM (inactive) and 11.9 µM (inactive)	9.4 µM (inactive) and 17.1 µM (inactive)	14 µM (inactive) and 12.6 µM (inactive)	12.8 µM (inactive) and 15.3 µM (inactive)	15.2 µM (inactive) and 11.8 µM (inactive)	12 µM (inactive)	4.54 µM (inactive) and 4.59 µM (inactive)	14.6 µM (inactive) and 9.66 µM (inactive)	11.5 µM (inactive) and 14.8 µM (inactive)	14.8 µM (inactive) and 10.8 µM (inactive)	16.7 µM (inactive) and 14.2 µM (inactive)	6.31 µM (inactive) and 12.2 µM (inactive)	13.6 µM (inactive) and 10.6 µM (inactive)	10.6 µM (inactive) and 12.8 µM (inactive)	9.27 µM (inactive) and 9.59 µM (inactive)	12.4 µM (inactive) and 11.6 µM (inactive)	11.8 µM (inactive)		
CC(=O)O[C@H]1CC[C@H]2[C@@H]3CCc4cc(O)c(I)cc4[C@H]3CC[C@]12C	14.1 µM (inactive)	18.2 µM (inactive)		13.4 µM (inactive)	14.9 µM (inactive)	14.8 µM (inactive)	5.21 µM (inactive)	15 µM (inactive)	16.1 µM (inactive)		13.1 µM (inactive)	15.7 µM (inactive)	19 µM (inactive)	14.7 µM (inactive)	13.6 µM (inactive)	15.3 µM (inactive)	13.6 µM (inactive)	16.4 µM (inactive)	10.5	6.12 µM (inactive)
Cc1ccc(-n2nnc(C#N)c2O)cc1	> 100 µM (inactive)	> 100 µM (inactive)		> 100 µM (inactive)	> 100 µM (inactive)	> 100 µM (inactive)	> 100 µM (inactive)	> 100 µM (inactive)	93.3 µM (inactive)	> 100 µM (inactive)	> 100 µM (inactive)	> 100 µM (inactive)	> 100 µM (inactive)	> 100 µM (inactive)	> 100 µM (inactive)	> 100 µM (inactive)	> 100 µM (inactive)	> 100 µM (inactive)	> 100	> 100 µM (inactive)
C[C@H](CO)C1=CC(C#C[Si](C)(C)C)N(C(=O)Oc2ccccc2)c2ccccc21 (some centres not stated)	14.2 µM (inactive)	15 µM (inactive)		6.5 µM (inactive)	10.2 µM (inactive)	16.9 µM (inactive)	10.4 µM (inactive)	10.6 µM (inactive)	14.1 µM (inactive)	2.26 µM (inactive)	13.3 µM (inactive)	11.6 µM (inactive)	13.4 µM (inactive)	14.6 µM (inactive)	7.69 µM (inactive)	11.6 µM (inactive)	7.1 µM (inactive)	13.6 µM (inactive)	3.06	10.2 µM (inactive)
O=NN1C(c2ccccc2)CC(=NO)CC1c1ccccc1 (configuration not stated)	> 100 µM (inactive)			88.5 µM (inactive)	> 100 µM (inactive)	> 100 µM (inactive)	74.5 µM (inactive)	79.1 µM (inactive)	68.4 µM (inactive)	> 100 µM (inactive)	> 100 µM (inactive)	> 100 µM (inactive)	6.65 µM (inactive)	> 100 µM (inactive)	> 100 µM (inactive)	> 100 µM (inactive)	> 100 µM (inactive)	> 100 µM (inactive)	> 100	70.3 µM (inactive)
CCc1nn(S(=O)(=O)c2ccc(C)cc2)c2c1CS(=O)(=O)CC2	> 100 µM (inactive)	> 100 µM (inactive)	> 100 µM (inactive)	> 100 µM (inactive)	28 µM (inactive)	> 100 µM (inactive)			> 100 µM (inactive)	> 100 µM (inactive)	89.7 µM (inactive)	69.3 µM (inactive)	> 100 µM (inactive)	> 100 µM (inactive)	> 100 µM (inactive)	> 100 µM (inactive)	> 100 µM (inactive)	> 100 µM (inactive)	> 100	> 100 µM (inactive)
Cc1cc(C)nc(NS(=O)(=O)c2ccc(NC(=O)c3ccc4nc5ccccc5c(Nc5ccc(S(=O)(=O)N=C(N)N)cc5)c4c3)cc2)n1	> 100 µM (inactive)	> 100 µM (inactive)		> 100 µM (inactive)	> 100 µM (inactive)	> 100 µM (inactive)	> 100 µM (inactive)	> 100 µM (inactive)	> 100 µM (inactive)	> 100 µM (inactive)	> 100 µM (inactive)	> 100 µM (inactive)	> 100 µM (inactive)	> 100 µM (inactive)	> 100 µM (inactive)	> 100 µM (inactive)	> 100 µM (inactive)	> 100 µM (inactive)	> 100	> 100 µM (inactive)
COc1cc(NS(C)(=O)=O)ccc1N1Cc2c[nH]c3ccc4nccc1c4c23	30.8 µM (inactive)	30 µM (inactive)	38.5 µM (inactive)		31.1 µM (inactive)	42.5 µM (inactive)	23.6 µM (inactive)		> 100 µM (inactive)	34.4 µM (inactive)	> 100 µM (inactive)		21.6 µM (inactive)	36.5 µM (inactive)	42.4 µM (inactive)	> 100 µM (inactive)	61.2 µM (inactive)	37.2 µM (inactive)	> 100	29.6 µM (inactive)
CC(C)Oc1ccc(CNC2=NCCO2)c2ccccc12	13.6 µM (inactive)	11.6 µM (inactive)	10.2 µM (inactive)	18.2 µM (inactive)	10.3 µM (inactive)	18.2 µM (inactive)	8.63 µM (inactive)	10.9 µM (inactive)		10.9 µM (inactive)	15.1 µM (inactive)	16.3 µM (inactive)		13.6 µM (inactive)	11.4 µM (inactive)	15.4 µM (inactive)	13.9 µM (inactive)	5.25 µM (inactive)	15.6	
CC1=C(C)CC(C#N)(C#N)C(C#N)(C#N)C1	> 4.94 µM (inactive)	> 10 µM (inactive)	> 10 µM (inactive)	> 10 µM (inactive)	> 10 µM (inactive)	> 10 µM (inactive)	1.47 µM (inactive)	> 10 µM (inactive)	> 10 µM (inactive)		> 10 µM (inactive)	> 10 µM (inactive)	> 10 µM (inactive)	> 10 µM (inactive)	2.86 µM (inactive)	> 10 µM (inactive)	> 8.04 µM (inactive)	> 10 µM (inactive)	> 10	> 6.35 µM (inactive)
O=C(NC(=S)Nc1ccc2c(c1)Sc1ccccc1O2)c1ccccc1	20.3 µM (inactive)	77.3 µM (inactive)		15.7 µM (inactive)	39.6 µM (inactive)	36.2 µM (inactive)	13.5 µM (inactive)	7.46 µM (inactive)	47.8 µM (inactive)	3.55 µM (inactive)	36.1 µM (inactive)	29 µM (inactive)	14.1 µM (inactive)	20.7 µM (inactive)	43.2 µM (inactive)	45.5 µM (inactive)	19.8 µM (inactive)	33.2 µM (inactive)	14	11.2 µM (inactive)
O1C2C1C1OC1C1OC1C1OC21 (configuration not stated)	> 100 µM (inactive)	> 100 µM (inactive)	> 100 µM (inactive)	46.6 µM (inactive)	> 100 µM (inactive)	> 100 µM (inactive)			> 100 µM (inactive)	> 100 µM (inactive)	> 100 µM (inactive)	> 100 µM (inactive)	> 100 µM (inactive)	> 100 µM (inactive)	> 100 µM (inactive)	> 100 µM (inactive)	> 100 µM (inactive)	> 100 µM (inactive)	> 100	> 100 µM (inactive)
Fc1ccc(F)c(/C=N/C23CC4CC(CC(C4)C2)C3)c1	> 10 µM (inactive)	> 10 µM (inactive)	> 10 µM (inactive)	> 10 µM (inactive)	> 10 µM (inactive)	> 10 µM (inactive)	2.62 µM (inactive)	> 10 µM (inactive)	> 10 µM (inactive)		> 10 µM (inactive)	> 10 µM (inactive)	> 10 µM (inactive)	> 10 µM (inactive)	> 10 µM (inactive)	> 10 µM (inactive)	> 10 µM (inactive)	> 10 µM (inactive)	> 10	> 10 µM (inactive)
CCOP(=O)(C[S+](C)[O-])O[C@@H]1C[C@H](C)CC[C@H]1C(C)C (some centres not stated)	2.73 µM (inactive)	4.28 µM (inactive)		7.28 µM (inactive)	3.26 µM (inactive)	6.37 µM (inactive)	3.48 µM (inactive)		2.88 µM (inactive)	3.21 µM (inactive)	3.33 µM (inactive)	6.95 µM (inactive)	4.47 µM (inactive)	4.59 µM (inactive)	8.3 µM (inactive)	4.85 µM (inactive)	15 µM (inactive)	6.4 µM (inactive)	2.71	6.61 µM (inactive)
CC1OC(=O)C(C(C)C)NC(=O)C(C(C)C)OC(=O)C(C(C)C)NC(=O)C(C)OC(=O)C(C(C)C)NC(=O)C(C(C)C)OC(=O)C(C(C)C)NC(=O)C(C)OC(=O)C(C(C)C)NC(=O)C(C(C)C)OC(=O)C(C(C)C)NC1=O (configuration not stated)	< 0.0001 µM (active)		0.0025 µM (active)	0.00301 µM (active)		0.000102 µM (active)	0.00275 µM (active)	0.00256 µM (active)	0.00288 µM (active)	< 0.0001 µM (active)	0.0198 µM (active)	0.00326 µM (active)	0.00288 µM (active)	0.0025 µM (active)	< 0.0001 µM (active)			0.0025 µM (active)	0.0034	< 0.0001 µM (active)
